According to US9302999B2, “Substituted triazoles as herbicides” (E. I. DU PONT DE NEMOURS AND COMPANY, priority 2012, dated 2016):

Legend:
Format in all cases: in vivo
[1] = tested on: crabgrass, large (large crabgrass, Digitaria sanguinalis); assay: Test A pre-/postemergence: crabgrass, large
In short: (§1)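 Visual 0–100 injury ratings (0 no effect, 100 complete control) taken about ten days after treatment, relative to untreated controls. Preemergence treatment was a directed soil spray; postemergence plants were 2–10 cm tall at one- to two-leaf stage. Soil: loam/sand blend.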

[2] = tested on: nutsedge, yellow (yellow nutsedge, Cyperus esculentus); assay: Test C pre-/postemergence: nutsedge, yellow
In short: (§2)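 Visual injury scored 0–100 (100 = complete control) against untreated controls after 13–15 greenhouse days. Surfactant-containing solvent formulations applied either to soil after sowing (loam/sand) or over 1- to 4-leaf plants, 2–18 cm tall.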

corn (Zea mays) = assay: Test A pre-/postemergence: corn
In short: as §1

[3] = tested on: blackgrass (Alopecurus myosuroides); assay: Test C pre-/postemergence: blackgrass
In short: as §2

[4] = tested on: galium (catchweed bedstraw, Galium aparine); assay: Test C pre-/postemergence: galium
In short: as §2

[5] = tested on: johnsongrass (Sorghum halepense); assay: Test C pre-/postemergence: johnsongrass
In short: as §2

wild oat (Avena fatua) = assay: Test C pre-/postemergence: wild oat
In short: as §2

[6] = tested on: barnyardgrass (Echinochloa crus-galli); assay: Test A pre-/postemergence: barnyardgrass
In short: as §1

[7] = tested on: pigweed (Amaranthus retroflexus); assay: Test C pre-/postemergence: pigweed
In short: as §2

[8] = tested on: lambsquarters (Chenopodium album); assay: Test C pre-/postemergence: lambsquarters
In short: as §2

[9] = tested on: large crabgrass (Digitaria sanguinalis); assay: Test C pre-/postemergence: large crabgrass
In short: as §2

[10] = tested on: ryegrass, Italian (Italian ryegrass, Lolium multiflorum); assay: Test C pre-/postemergence: ryegrass, Italian
In short: as §2

[11] = Postemergence, 125 g ai/ha, 0 to 100 scale, 0 is no effect, 100 is complete control
[12] = Postemergence, 500 g ai/ha, visual rating on 0 to 100 scale (0 no effect, 100 complete control), approximately ten days
[13] = Preemergence, 125 g ai/ha, 0 to 100 scale where 0 is no effect and 100 is complete control
[14] = Preemergence, 500 g ai/ha, 0 to 100 scale (0 no effect, 100 complete control)
[15] = Postemergence, 31 g ai/ha, scale 0 to 100 (0 no effect, 100 complete control)
[16] = Postemergence, 62 g ai/ha, scale 0 to 100 (0 no effect, 100 complete control)
[17] = Postemergence, 125 g ai/ha, scale 0 to 100, 0 no effect, 100 complete control
[18] = Postemergence, 250 g ai/ha, scale 0 to 100
[19] = Preemergence, 31 g ai/ha, scale of 0 to 100, 0 is no effect, 100 is complete control
[20] = Preemergence, 62 g ai/ha, scale of 0 to 100, 0 is no effect, 100 is complete control
[21] = Preemergence, 125 g ai/ha, scale 0 to 100, 0 no effect, 100 complete control
[22] = Preemergence, 250 g ai/ha, scale 0 to 100, 0 no effect, 100 complete control

SMILES: Cc1nn(-c2ccc(C(F)(F)F)c(F)c2)nc1Cc1ccnc(C(F)(F)F)c1 [Compound 162]
- Plant response rating, Crabgrass, Large [1, 11]: 90
- Crabgrass, Large plant response rating [1, 12]: 90
- Plant response rating, Crabgrass, Large [1, 13]: 100
- Plant response rating, Crabgrass, Large [1, 14]: 100
- Plant response rating, Nutsedge, Yellow [2, 15]: 5
- Plant response rating, Nutsedge, Yellow [2, 16]: 5
- Plant response rating, Nutsedge, Yellow [2, 17]: 5
- Plant response rating, Nutsedge, Yellow [2, 18]: 10
- Plant response rating, Nutsedge, Yellow [2, 19]: 0
- Plant response rating, Nutsedge, Yellow [2, 20]: 0
- Plant response rating, Nutsedge, Yellow [2, 21]: 5
- Plant response rating, Nutsedge, Yellow [2, 22]: 5
- Plant response rating, Corn (corn (Zea mays); [11]): 20
- Corn plant response rating (corn (Zea mays); [12]): 40
- Plant response rating, Corn (corn (Zea mays); [13]): 20
- Plant response rating, Corn (corn (Zea mays); [14]): 30
- Plant response rating, Blackgrass [3, 15]: 45
- Plant response rating, Blackgrass [3, 16]: 80
- Plant response rating, Blackgrass [3, 17]: 85
- Plant response rating, Blackgrass [3, 18]: 90
- Plant response rating, Blackgrass [3, 19]: 60
- Plant response rating, Blackgrass [3, 20]: 90
- Plant response rating, Blackgrass [3, 21]: 90
- Plant response rating, Blackgrass [3, 22]: 95
- Plant response rating, Galium [4, 15]: 75
- Plant response rating, Galium [4, 16]: 75
- Plant response rating, Galium [4, 17]: 80
- Plant response rating, Galium [4, 18]: 95
- Plant response rating, Galium [4, 19]: 100
- Plant response rating, Galium [4, 21]: 100
- Plant response rating, Galium [4, 22]: 100
- Plant response rating, Johnsongrass [5, 15]: 45
- Plant response rating, Johnsongrass [5, 16]: 80
- Plant response rating, Johnsongrass [5, 17]: 80
- Plant response rating, Johnsongrass [5, 18]: 98
- Plant response rating, Johnsongrass [5, 19]: 35
- Plant response rating, Johnsongrass [5, 20]: 60
- Plant response rating, Johnsongrass [5, 21]: 98
- Plant response rating, Johnsongrass [5, 22]: 98
- Plant response rating, Oat, Wild (wild oat (Avena fatua); [15]): 40
- Plant response rating, Oat, Wild (wild oat (Avena fatua); [16]): 60
- Plant response rating, Oat, Wild (wild oat (Avena fatua); [17]): 60
- Plant response rating, Oat, Wild (wild oat (Avena fatua); [18]): 90
- Plant response rating, Barnyardgrass [6, 11]: 80
- Barnyardgrass plant response rating [6, 12]: 90
- Plant response rating, Barnyardgrass [6, 13]: 90
- Plant response rating, Barnyardgrass [6, 14]: 100
- Plant response rating, Pigweed [7, 15]: 85
- Plant response rating, Pigweed [7, 16]: 85
- Plant response rating, Pigweed [7, 17]: 90
- Plant response rating, Pigweed [7, 18]: 95
- Plant response rating, Pigweed [7, 19]: 100
- Plant response rating, Pigweed [7, 20]: 100
- Plant response rating, Pigweed [7, 21]: 100
- Plant response rating, Pigweed [7, 22]: 100
- Plant response rating, Lambsquarters [8, 15]: 95
- Plant response rating, Lambsquarters [8, 16]: 95
- Plant response rating, Lambsquarters [8, 17]: 98
- Plant response rating, Lambsquarters [8, 18]: 98
- Plant response rating, Crabgrass, Large [9, 15]: 20
- Plant response rating, Crabgrass, Large [9, 16]: 35
- Plant response rating, Crabgrass, Large [9, 17]: 35
- Plant response rating, Crabgrass, Large [9, 18]: 80
- Plant response rating, Crabgrass, Large [9, 19]: 100
- Plant response rating, Crabgrass, Large [9, 20]: 100
- Plant response rating, Crabgrass, Large [9, 21]: 100
- Plant response rating, Crabgrass, Large [9, 22]: 100
- Plant response rating, Ryegrass, Italian [10, 15]: 30
- Plant response rating, Ryegrass, Italian [10, 16]: 35
- Plant response rating, Ryegrass, Italian [10, 17]: 60
- Plant response rating, Ryegrass, Italian [10, 18]: 80
- Plant response rating, Ryegrass, Italian [10, 19]: 60
- Plant response rating, Ryegrass, Italian [10, 20]: 80
- Plant response rating, Ryegrass, Italian [10, 21]: 90
- Plant response rating, Ryegrass, Italian [10, 22]: 95

SMILES: Cc1nn(-c2ccc(F)c(F)c2)nc1Oc1ccnc(C(F)(F)F)c1 [Compound 145]
- Crabgrass, Large plant response rating [1, 11]: 90
- Crabgrass, Large plant response rating [1, 12]: 90
- Plant response rating, Crabgrass, Large [1, 13]: 100
- Plant response rating, Crabgrass, Large [1, 14]: 100
- Plant response rating, Nutsedge, Yellow [2, 15]: 5
- Plant response rating, Nutsedge, Yellow [2, 16]: 10
- Plant response rating, Nutsedge, Yellow [2, 17]: 15
- Plant response rating, Nutsedge, Yellow [2, 18]: 15
- Plant response rating, Nutsedge, Yellow [2, 21]: 5
- Plant response rating, Nutsedge, Yellow [2, 22]: 10
- Corn plant response rating (corn (Zea mays); [11]): 40
- Corn plant response rating (corn (Zea mays); [12]): 90
- Plant response rating, Corn (corn (Zea mays); [13]): 10
- Plant response rating, Corn (corn (Zea mays); [14]): 40
- Plant response rating, Blackgrass [3, 15]: 10
- Plant response rating, Blackgrass [3, 16]: 60
- Plant response rating, Blackgrass [3, 17]: 70
- Plant response rating, Blackgrass [3, 18]: 70
- Plant response rating, Blackgrass [3, 19]: 85
- Plant response rating, Blackgrass [3, 20]: 90
- Plant response rating, Blackgrass [3, 21]: 90
- Plant response rating, Blackgrass [3, 22]: 90
- Plant response rating, Galium [4, 15]: 80
- Plant response rating, Galium [4, 16]: 80
- Plant response rating, Galium [4, 17]: 90
- Plant response rating, Galium [4, 18]: 95
- Plant response rating, Galium [4, 19]: 60
- Plant response rating, Galium [4, 20]: 98
- Plant response rating, Galium [4, 21]: 100
- Plant response rating, Galium [4, 22]: 100
- Plant response rating, Johnsongrass [5, 15]: 10
- Plant response rating, Johnsongrass [5, 16]: 20
- Plant response rating, Johnsongrass [5, 17]: 70
- Plant response rating, Johnsongrass [5, 18]: 75
- Plant response rating, Johnsongrass [5, 19]: 0
- Plant response rating, Johnsongrass [5, 20]: 35
- Plant response rating, Johnsongrass [5, 21]: 100
- Plant response rating, Johnsongrass [5, 22]: 100
- Plant response rating, Oat, Wild (wild oat (Avena fatua); [15]): 20
- Plant response rating, Oat, Wild (wild oat (Avena fatua); [16]): 40
- Plant response rating, Oat, Wild (wild oat (Avena fatua); [17]): 60
- Plant response rating, Oat, Wild (wild oat (Avena fatua); [18]): 80
- Plant response rating, Oat, Wild (wild oat (Avena fatua); [19]): 45
- Plant response rating, Oat, Wild (wild oat (Avena fatua); [20]): 70
- Plant response rating, Oat, Wild (wild oat (Avena fatua); [21]): 90
- Plant response rating, Oat, Wild (wild oat (Avena fatua); [22]): 90
- Barnyardgrass plant response rating [6, 11]: 80
- Barnyardgrass plant response rating [6, 12]: 90
- Plant response rating, Barnyardgrass [6, 13]: 100
- Plant response rating, Barnyardgrass [6, 14]: 100
- Plant response rating, Pigweed [7, 15]: 85
- Plant response rating, Pigweed [7, 16]: 98
- Plant response rating, Pigweed [7, 17]: 98
- Plant response rating, Pigweed [7, 18]: 98
- Plant response rating, Pigweed [7, 19]: 90
- Plant response rating, Pigweed [7, 20]: 98
- Plant response rating, Pigweed [7, 21]: 98
- Plant response rating, Pigweed [7, 22]: 100
- Plant response rating, Lambsquarters [8, 15]: 95
- Plant response rating, Lambsquarters [8, 16]: 95
- Plant response rating, Lambsquarters [8, 17]: 95
- Plant response rating, Lambsquarters [8, 18]: 95
- Plant response rating, Lambsquarters [8, 19]: 55
- Plant response rating, Lambsquarters [8, 20]: 85
- Plant response rating, Lambsquarters [8, 21]: 95
- Plant response rating, Lambsquarters [8, 22]: 98
- Plant response rating, Crabgrass, Large [9, 15]: 25
- Plant response rating, Crabgrass, Large [9, 16]: 50
- Plant response rating, Crabgrass, Large [9, 17]: 85
- Plant response rating, Crabgrass, Large [9, 18]: 95
- Plant response rating, Crabgrass, Large [9, 19]: 98
- Plant response rating, Crabgrass, Large [9, 20]: 100
- Plant response rating, Crabgrass, Large [9, 21]: 100
- Plant response rating, Crabgrass, Large [9, 22]: 100
- Plant response rating, Ryegrass, Italian [10, 15]: 20
- Plant response rating, Ryegrass, Italian [10, 16]: 30
- Plant response rating, Ryegrass, Italian [10, 17]: 40
- Plant response rating, Ryegrass, Italian [10, 18]: 50
- Plant response rating, Ryegrass, Italian [10, 19]: 5
- Plant response rating, Ryegrass, Italian [10, 20]: 35
- Plant response rating, Ryegrass, Italian [10, 21]: 90
- Plant response rating, Ryegrass, Italian [10, 22]: 90
